{"source": "patent US9737504B2", "about": "“Dihydroorotic and acid dehydrogenase inhibitor” (NAI INC., priority 2012, dated 2017)", "key": {"KM-12": {"system": "KM-12", "experiment": "JFCR39 cancer cell growth inhibition test, KM-12", "format": "cell-based", "settings": "Homo sapiens, KM12; KM-12, Co (Colon)"}, "[1]": {"system": "Panc-1 cells (human pancreatic cells)", "experiment": "Inhibitory effect on Panc-1 cells, control vs hypoxic and subnutritional conditions", "format": "cell-based", "settings": "for IC50: Homo sapiens", "procedure": "For these reasons, cells of colorectal and pancreatic cancers, each being regarded as intractable, were used to test the inhibitory effect of compounds under hypoxic and subnutritional conditions. Moreover, the same test was also performed on normal skin cells.\nThe cells used were two types of cancer cells, i.e., DLD-1 cells (human colorectal cancer cells) and Panc-1 cells (human pancreatic cells), as well as HDF cells (human dermal fibroblast cells). Culture conditions were set as follows: 21% oxygen with glucose and […] (10% FBS) for the control group, and 1% oxygen without glucose and […] (10% FBS) for the hypoxic and subnutritional group. The results obtained are shown in Tables 3, 4 and 5, as well as FIGS. 1, 2 and 3."}, "OVCAR-4": {"system": "OVCAR-4", "experiment": "JFCR39 cancer cell growth inhibition test, OVCAR-4", "format": "cell-based", "settings": "Homo sapiens; OVCAR-4, Ov (Ovarian)"}, "MKN7": {"system": "MKN7", "experiment": "JFCR39 cancer cell growth inhibition test, MKN7", "format": "cell-based", "settings": "Homo sapiens, MKN-7; MKN7, St (Stomac)"}, "DMS114": {"system": "DMS114", "experiment": "JFCR39 cancer cell growth inhibition test, DMS114", "format": "cell-based", "settings": "Homo sapiens, DMS-114; DMS114, Lu (Lung)"}, "SF-295": {"system": "SF-295", "experiment": "JFCR39 cancer cell growth inhibition test, SF-295", "format": "cell-based", "settings": "Homo sapiens; SF-295, CNS (Central Nervous Systems)"}, "St-4": {"system": "St-4", "experiment": "JFCR39 cancer cell growth inhibition test, St-4", "format": "cell-based", "settings": "Homo sapiens; St-4, St (Stomac)"}, "MCF-7": {"system": "MCF-7", "experiment": "JFCR39 cancer cell growth inhibition test, MCF-7", "format": "cell-based", "settings": "Homo sapiens, MCF7; MCF-7, Br (Breast)"}, "MKN1": {"system": "MKN1", "experiment": "JFCR39 cancer cell growth inhibition test, MKN1", "format": "cell-based", "settings": "Homo sapiens, MKN-1; MKN1, St (Stomac)"}, "OVCAR-5": {"system": "OVCAR-5", "experiment": "JFCR39 cancer cell growth inhibition test, OVCAR-5", "format": "cell-based", "settings": "Homo sapiens; OVCAR-5, Ov (Ovarian)"}, "HBC-4": {"system": "HBC-4", "experiment": "JFCR39 cancer cell growth inhibition test, HBC-4", "format": "cell-based", "settings": "Homo sapiens, HBC4; HBC-4, Br (Breast)"}, "U251": {"system": "U251", "experiment": "JFCR39 cancer cell growth inhibition test, U251", "format": "cell-based", "settings": "Homo sapiens, U-251; U251, CNS (Central Nervous Systems)"}, "A549": {"system": "A549", "experiment": "JFCR39 cancer cell growth inhibition test, A549", "format": "cell-based", "settings": "Homo sapiens; A549, Lu (Lung)"}, "SF-268": {"system": "SF-268", "experiment": "JFCR39 cancer cell growth inhibition test, SF-268", "format": "cell-based", "settings": "Homo sapiens; SF-268, CNS (Central Nervous Systems)"}, "SNB-78": {"system": "SNB-78", "experiment": "JFCR39 cancer cell growth inhibition test, SNB-78", "format": "cell-based", "settings": "Homo sapiens; SNB-78, CNS (Central Nervous Systems)"}, "MKN28": {"system": "MKN28", "experiment": "JFCR39 cancer cell growth inhibition test, MKN28", "format": "cell-based", "settings": "Homo sapiens, MKN-28; MKN28, St (Stomac)"}, "human DHOD [2]": {"biological_target": "T1, human DHOD (Homo sapiens, UniProt Q02127)", "T1 sequence (Q02127 whole entry)": "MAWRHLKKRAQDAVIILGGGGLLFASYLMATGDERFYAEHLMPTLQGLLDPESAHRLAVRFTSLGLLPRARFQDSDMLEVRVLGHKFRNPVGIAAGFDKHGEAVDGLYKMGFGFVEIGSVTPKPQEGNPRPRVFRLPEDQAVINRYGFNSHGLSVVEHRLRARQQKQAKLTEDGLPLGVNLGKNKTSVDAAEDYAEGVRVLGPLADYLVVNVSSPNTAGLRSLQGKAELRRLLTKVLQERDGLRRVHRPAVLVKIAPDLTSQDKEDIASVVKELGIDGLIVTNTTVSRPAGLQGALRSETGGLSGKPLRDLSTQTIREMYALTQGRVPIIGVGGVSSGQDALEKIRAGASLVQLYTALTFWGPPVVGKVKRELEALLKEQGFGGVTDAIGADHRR", "experiment": "Measurement of DHOD inhibitory activity (DCIP reduction, end point assay)", "format": "biochemical", "settings": "read-out: DHOD inhibition rate (%) 100 nM; 100 nM compound"}, "NCI-H23": {"system": "NCI-H23", "experiment": "JFCR39 cancer cell growth inhibition test, NCI-H23", "format": "cell-based", "settings": "Homo sapiens; NCI-H23, Lu (Lung)"}, "HBC-5": {"system": "HBC-5", "experiment": "JFCR39 cancer cell growth inhibition test, HBC-5", "format": "cell-based", "settings": "Homo sapiens, HBC5; HBC-5, Br (Breast)"}, "OVCAR-3": {"system": "OVCAR-3", "experiment": "JFCR39 cancer cell growth inhibition test, OVCAR-3", "format": "cell-based", "settings": "Homo sapiens; OVCAR-3, Ov (Ovarian)"}, "RXF-631L": {"system": "RXF-631L", "experiment": "JFCR39 cancer cell growth inhibition test, RXF-631L", "format": "cell-based", "settings": "Homo sapiens, Re (Renal)"}, "HT-29": {"system": "HT-29", "experiment": "JFCR39 cancer cell growth inhibition test, HT-29", "format": "cell-based", "settings": "Homo sapiens; HT-29, Co (Colon)"}, "ACHN": {"system": "ACHN", "experiment": "JFCR39 cancer cell growth inhibition test, ACHN", "format": "cell-based", "settings": "Homo sapiens, Re (Renal)"}, "SNB-75": {"system": "SNB-75", "experiment": "JFCR39 cancer cell growth inhibition test, SNB-75", "format": "cell-based", "settings": "Homo sapiens; SNB-75, CNS (Central Nervous Systems)"}, "HCC2998": {"system": "HCC2998", "experiment": "JFCR39 cancer cell growth inhibition test, HCC2998", "format": "cell-based", "settings": "Homo sapiens, HCC 2998; HCC2998, Co (Colon)"}, "SK-OV-3": {"system": "SK-OV-3", "experiment": "JFCR39 cancer cell growth inhibition test, SK-OV-3", "format": "cell-based", "settings": "Homo sapiens; SK-OV-3, Ov (Ovarian)"}, "NCI-H460": {"system": "NCI-H460", "experiment": "JFCR39 cancer cell growth inhibition test, NCI-H460", "format": "cell-based", "settings": "Homo sapiens; NCI-H460, Lu (Lung)"}, "human DHOD [3]": {"biological_target": "T1, human DHOD", "experiment": "Measurement of DHOD inhibitory activity (DCIP reduction, end point assay)", "format": "biochemical", "procedure": "The compounds of the present invention were used and measured for their DHOD inhibitory activity at concentrations of 200 nM and 1000 nM.\nReduction of DCIP was measured at 600 nm over 20 minutes."}, "PC-3": {"system": "PC-3", "experiment": "JFCR39 cancer cell growth inhibition test, PC-3", "format": "cell-based", "settings": "Homo sapiens; PC-3, xPg (Prostate)"}, "NCI-H522": {"system": "NCI-H522", "experiment": "JFCR39 cancer cell growth inhibition test, NCI-H522", "format": "cell-based", "settings": "Homo sapiens; NCI-H522, Lu (Lung)"}, "BSY-1": {"system": "BSY-1", "experiment": "JFCR39 cancer cell growth inhibition test, BSY-1", "format": "cell-based", "settings": "Homo sapiens; BSY-1, Br (Breast)"}, "L0X-IMVI": {"system": "L0X-IMVI", "experiment": "JFCR39 cancer cell growth inhibition test, L0X-IMVI", "format": "cell-based", "settings": "Homo sapiens, Me (Melanoma)"}, "OVCAR-8": {"system": "OVCAR-8", "experiment": "JFCR39 cancer cell growth inhibition test, OVCAR-8", "format": "cell-based", "settings": "Homo sapiens; OVCAR-8, Ov (Ovarian)"}}, "note": "Like-named read-outs stand apart in the source and are kept apart here."}
{"smiles": "C/C(=C\\Cc1c(O)c(Cl)c(C)c(C=O)c1O)CC/C=C(\\C)[C@@H]1CC(=O)C(C)(C)O1", "note": "(racemic) [Ascofuranone, dl-5-Chloro-2,4-dihydroxy-6-methyl-3-[(2E,6E)-3-methyl-7-(3,3-dimethyl-4-oxo-2-oxacyclopentyl)-2,6-octadienyl]benzaldehyde]", "values": [{"measurement": "GI50", "setting": "KM-12", "value": 9.3, "unit": "µM"}, {"measurement": "IC50", "setting": "[1]; read-out: IC50 [μM] 1% O2 glc(−)gln(−), Panc-1, 1% O2 glc(−)gln(−)", "value": 1.4, "unit": "µM"}, {"measurement": "IC50", "setting": "[1]; Panc-1, 21% O2 glc(+)gln(+), read-out: IC50 [μM] 21% O2 glc(+)gln(+)", "value": "> 100", "unit": "µM"}, {"measurement": "Selectivity = 21% glc(+)gln(+) IC50/1% glc(−)gln(−) IC50", "setting": "[1]; Panc-1", "value": ">71"}, {"measurement": "GI50", "setting": "OVCAR-4", "value": 5.9, "unit": "µM"}, {"measurement": "GI50", "setting": "MKN7", "value": 15, "unit": "µM"}, {"measurement": "GI50", "setting": "DMS114", "value": 19, "unit": "µM"}, {"measurement": "GI50", "setting": "SF-295", "value": 5.3, "unit": "µM"}, {"measurement": "GI50", "setting": "St-4", "value": 14, "unit": "µM"}, {"measurement": "GI50", "setting": "MCF-7", "value": 9, "unit": "µM"}, {"measurement": "GI50", "setting": "MKN1", "value": 14, "unit": "µM"}, {"measurement": "GI50", "setting": "OVCAR-5", "value": 7.6, "unit": "µM"}, {"measurement": "GI50", "setting": "HBC-4", "value": 9.1, "unit": "µM"}, {"measurement": "GI50", "setting": "U251", "value": 1.5, "unit": "µM"}, {"measurement": "GI50", "setting": "A549", "value": 7.6, "unit": "µM"}, {"measurement": "GI50", "setting": "SF-268", "value": 7, "unit": "µM"}, {"measurement": "GI50", "setting": "SNB-78", "value": 23, "unit": "µM"}, {"measurement": "GI50", "setting": "MKN28", "value": 9.7, "unit": "µM"}, {"measurement": "inhibition at 0.1 µM", "setting": "human DHOD [2]", "value": 95, "unit": "%"}, {"measurement": "GI50", "setting": "NCI-H23", "value": 15, "unit": "µM"}, {"measurement": "GI50", "setting": "HBC-5", "value": 28, "unit": "µM"}, {"measurement": "GI50", "setting": "OVCAR-3", "value": 8, "unit": "µM"}, {"measurement": "GI50", "setting": "RXF-631L", "value": 12, "unit": "µM"}, {"measurement": "GI50", "setting": "HT-29", "value": 6.6, "unit": "µM"}, {"measurement": "GI50", "setting": "ACHN", "value": 10, "unit": "µM"}, {"measurement": "GI50", "setting": "SNB-75", "value": 23, "unit": "µM"}, {"measurement": "GI50", "setting": "HCC2998", "value": 17, "unit": "µM"}, {"measurement": "GI50", "setting": "SK-OV-3", "value": 13, "unit": "µM"}, {"measurement": "GI50", "setting": "NCI-H460", "value": 2, "unit": "µM"}, {"measurement": "inhibition at 0.2 µM", "setting": "human DHOD [3]; read-out: DHOD inhibition rate (%) 200 nM, 200 nM compound", "value": 73, "unit": "%"}, {"measurement": "IC50", "setting": "human DHOD [3]; read-out: IC50 (nM) human DHOD (HsDHOD)", "value": 38, "unit": "nM"}, {"measurement": "GI50", "setting": "PC-3", "value": 13, "unit": "µM"}, {"measurement": "GI50", "setting": "NCI-H522", "value": 8.4, "unit": "µM"}, {"measurement": "GI50", "setting": "BSY-1", "value": 16, "unit": "µM"}, {"measurement": "GI50", "setting": "L0X-IMVI", "value": 2.8, "unit": "µM"}, {"measurement": "GI50", "setting": "OVCAR-8", "value": 9.5, "unit": "µM"}]}
